% fluorescent cells increase data for 73 compounds are collected here from PubChem BioAssay AID743396 (Broad Institute, 2014).

Calls of active or inactive are those of the source.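 Rule for the calls: active = fitted curve reaches a 40% rise in fluorescent cells at or below the top valid dose; inactive = opposite-direction effect, or the rest.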

One assay can be described thus: autofluorescent compounds in non-GFP fibroblasts, dose response, artefact control for X-chromosome reactivation project, imaging, mTEFS fibroblasts, cherry-pick (AID 743396).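 Note: raw share of Hoechst-counted cells scored GFP positive without control normalization.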 The settings on record: mTEFS fibroblasts autofluorescence, GFP-channel imaging, 3 days; at 6.8 µM (top of the series); cells pretreated with 5-aza-dC.
Turning to `CCN1/C(=C/c2ccc3cc(C)ccc3[n+]2CC)Sc2cc(C)c(C)cc21`, the % fluorescent cells increase was 27.9% (inactive).

The same assay, now with this note: mTEFS fibroblasts autofluorescence, GFP-channel imaging, 3 days; at 19.5 µM (top of the series).
As to `OCC[n+]1c2ccccc2nc2ccc(N3CCOCC3)cc21`, the % fluorescent cells increase is 0% (inactive).

For `C=CCn1c(O)c(C(C)=NCc2ccc3c(c2)OCO3)c(=O)[nH]c1=O`, the % fluorescent cells increase is 0.135% (inactive).

The same assay, now with this note: mTEFS fibroblasts autofluorescence, GFP-channel imaging, 3 days; at 19.5 µM (top of the series); cells pretreated with 5-aza-dC.
For `COc1ccc(CNC(=O)c2ccc(-c3cnn(C)c3)c3ccoc23)cc1OC`, the % fluorescent cells increase was 1.28% (inactive).

For `Cc1cc(NC(=O)c2c(-c3c(Cl)cccc3Cl)noc2C)n(C)n1`, the % fluorescent cells increase is 0.012% (inactive).

With `Cc1ccc2[nH]c(C)c(/C=C/c3cc[n+](C)cc3)c2c1`, the % fluorescent cells increase was 8.78% (inactive).

`O=C(CSc1nc2ccccc2[nH]1)N/N=C/C=C/c1ccccc1[N+](=O)[O-]`: the % fluorescent cells increase is 0.094% (inactive).

Consider `COc1cc(/C=C2\SC(=S)N(N3CCOCC3)C2=O)cc(OC)c1OC`, for which the % fluorescent cells increase was -0.007% (inactive).

As for `CO[C@H]1CN(C)C(=O)c2ccc(NC(=O)C3CCCCC3)cc2OC[C@H](C)NC[C@@H]1C`, the % fluorescent cells increase was 0.009% (inactive).

`COc1ccc(CN(C)C[C@H]2OCCCC[C@@H](C)Oc3ccc(NC(=O)Nc4ccc(F)cc4)cc3C(=O)N([C@@H](C)CO)C[C@H]2C)cc1`: the % fluorescent cells increase was 0% (inactive).

Take `CC(C)c1ccc(CN2CCN(C(=O)CSc3nnnn3C3CC3)CC2)cc1`: the % fluorescent cells increase was 0.042% (inactive).

Take `COc1ccc2nc(SCC(=O)Nc3ccccc3OC)[nH]c2c1`: the % fluorescent cells increase is 0.385% (inactive).

Take `CC(C)CC#Cc1ccc([C@@H]2[C@@H](CO)N3C(=O)CN(C(=O)c4cccc(F)c4)C[C@H]23)cc1`: the % fluorescent cells increase was -0.108% (inactive).

Consider `COc1ccccc1N(C)c1cc2c(c3c1ccn3C)C1CCC2C1` (stereo not drawn), for which the % fluorescent cells increase was 0.033% (inactive).

With `Cc1ccc(Cn2cc(/C=N/Nc3ccc([N+](=O)[O-])cn3)c3ccccc32)cc1`, the % fluorescent cells increase was 0.941% (inactive).

For `COc1ccc(S(=O)(=O)Nc2ccc3c(c2)C(=O)N([C@@H](C)CO)C[C@H](C)[C@H](CN(C)C(=O)CCCN(C)C)OCCCC[C@H](C)O3)cc1`, the % fluorescent cells increase was 0.13% (inactive).

Take `Cc1ccc(S(=O)(=O)N(C)C[C@H]2OCCCC[C@@H](C)Oc3ccc(NC(=O)Nc4c(C)noc4C)cc3C(=O)N([C@H](C)CO)C[C@@H]2C)cc1`: the % fluorescent cells increase was 0.012% (inactive).

Consider `Cc1ccc(NC(=O)c2cc(N3C(=O)C=CC3=O)ccc2N2CCOCC2)cc1Cl`, for which the % fluorescent cells increase was -0.004% (inactive).

For the compound `CCC(=O)N1CC(=O)N2[C@@H](CO)[C@@H](c3ccc(-c4ccccc4F)cc3)[C@@H]2C1`, the % fluorescent cells increase is 0% (inactive).

As for `CC(C)(C)C1CCNC(=O)CC1` (stereo not drawn), the % fluorescent cells increase was -0.007% (inactive).

Take `Cc1nnc(SCc2cc(=O)oc3ccc4ccccc4c23)n1Cc1ccccc1`: the % fluorescent cells increase was 0% (inactive).

On to `CCCOc1ccc(Oc2nc(-c3ccncc3)nc3ccccc23)cc1`, for which the % fluorescent cells increase is 0.007% (inactive).

`COC(=O)C(C(C)C)N1CCc2c(C)nc3c(C#N)cnn3c21` (stereo not drawn): the % fluorescent cells increase was 0.064% (inactive).

As to `Cc1ccc(-c2csc(NC(=O)c3cccc([N+](=O)[O-])c3C(=O)O)n2)cc1`, the % fluorescent cells increase is 0% (inactive).

Take `COc1ccc(NC(=O)N(C)[C@H]2C[C@H]3c4[nH]c5ccc(-c6ccc(OC)cc6)cc5c4CCN3C(=O)[C@H]2[C@H](C)O)cc1`: the % fluorescent cells increase was 0.507% (inactive).

With `O=C(OCc1cc(=O)n2c(n1)sc1ccccc12)c1ccc(O)cc1O`, the % fluorescent cells increase was -0.007% (inactive).

Regarding `Cc1ccccc1C1c2[nH]c3ccccc3c2CCN1Cc1cccn1-c1ncccn1` (stereo not drawn), the % fluorescent cells increase was 0.002% (inactive).

`CCCCCCCCN1C(=O)[C@H](CC(=O)N2CCSCC2)C[C@@]2(C(=O)OCC)CCCC=C12`: the % fluorescent cells increase was 0.056% (inactive).

Regarding `CC(NC(=O)c1ccccc1)C(=O)N/N=C/c1ccccc1` (stereo not drawn), the % fluorescent cells increase is 0% (inactive).

For the compound `O=C(CNC(=O)c1ccccc1F)OCc1nc2ccccc2s1`, the % fluorescent cells increase is 0.037% (inactive).

Consider `O=C(N/N=C/c1ccc(Br)s1)c1ccc([N+](=O)[O-])cc1`, for which the % fluorescent cells increase was -0.007% (inactive).

`CCOC(=O)Nc1cc2c(c(N)n1)N=C(c1ccccc1)CN2`: the % fluorescent cells increase is 0.925% (inactive).

For the compound `CCOc1ccc(N2C(=O)CC(Sc3nc(O)c(CC)c(=O)[nH]3)C2=O)cc1` (stereo not drawn), the % fluorescent cells increase is -0.007% (inactive).

Consider `CCOC(=O)C1(Cc2ccccc2C)CCCN(C(=O)CSC)C1` (stereo not drawn), for which the % fluorescent cells increase is 0% (inactive).

Consider `Cc1ccc(NC(=O)c2ccc(=O)[nH]c2)cc1S(=O)(=O)N1CCCCCC1`, for which the % fluorescent cells increase was 0.615% (inactive).

As to `Cc1nn(-c2ccccc2)c(N)c1N=O`, the % fluorescent cells increase was 0% (inactive).

`O=C(CCl)N=c1sccn1Cc1ccc(Cl)cc1Cl`: the % fluorescent cells increase is 0% (inactive).

Take `C/C(=N\NC(=O)c1ccccc1Cl)c1ccccn1`: the % fluorescent cells increase is 0% (inactive).

With `O=C(Nc1c(Cl)cccc1Cl)Oc1cccc2cccnc12`, the % fluorescent cells increase is 6.89% (inactive).

`C[C@@H]1CN([C@H](C)CO)C(=O)c2cc(NS(=O)(=O)c3ccccc3)ccc2O[C@@H](C)CCCCO[C@@H]1CN(C)Cc1ccc2c(c1)OCO2`: the % fluorescent cells increase is 3.87% (inactive).

As to `COc1ccc(COc2ccccc2C(=O)NCc2ccccc2)cc1F`, the % fluorescent cells increase is 0% (inactive).

`CN(C)CC(=O)N1CC2(C1)[C@@H](c1ccccc1)[C@H](CO)N2C(=O)C1CC1`: the % fluorescent cells increase is -0.147% (inactive).

On to `COc1ccc2c3c([nH]c2c1)[C@@H](CO)N(Cc1ccccc1F)CC31CN(C(=O)C2CCOCC2)C1`, for which the % fluorescent cells increase is -0.038% (inactive).

On to `COc1ccc(-n2nc(C#N)c(Cl)cc2=O)cc1`, for which the % fluorescent cells increase is -0.006% (inactive).

`CCn1nc(C)cc1-c1nnc(Sc2ncc([N+](=O)[O-])s2)n1C`: the % fluorescent cells increase was 0% (inactive).

`O=C(O)c1ccc(COc2ccccc2C=C2C(=O)c3ccccc3C2=O)cc1`: the % fluorescent cells increase was -0.004% (inactive).

Take `C[C@H](NC(=O)C[C@H]1CC[C@@H](NC(=O)Cc2ccccn2)[C@@H](CO)O1)c1ccccc1`: the % fluorescent cells increase was 0.008% (inactive).

With `Cc1cc(N)ncc1[N+](=O)[O-]`, the % fluorescent cells increase was 0.218% (inactive).

As to `Cn1c2ccccc2c2cnn(CC(=O)Nc3ccccc3Br)c(=O)c21`, the % fluorescent cells increase was -0.007% (inactive).

In the case of `Cc1ccc(C(=O)c2oc3ccccc3c2NC(=O)c2cc(-c3ccccc3O)n[nH]2)cc1`, the % fluorescent cells increase was 9.74% (inactive).

Take `CC(C)CC(=O)Nc1c2c(nn1-c1ccc(F)cc1)CSC2`: the % fluorescent cells increase was 0.007% (inactive).

On to `O=C(Nc1ccccc1)N1C[C@@H]2[C@H](c3ccccc31)[C@H](CO)N2C(=O)c1ccccc1F`, for which the % fluorescent cells increase is 0.041% (inactive).

Consider `COc1ccccc1/C=C/C(=O)OCC(=O)NC(=O)NC1CCCC1`, for which the % fluorescent cells increase was 0% (inactive).

`O=[N+]([O-])c1c(Nc2ccc(O)cc2)cc(Cl)c2nonc12`: the % fluorescent cells increase was -0.006% (inactive).

`COc1cc(C(=O)NC(=S)Nc2cccc3nc(C)ccc23)cc(OC)c1OC`: the % fluorescent cells increase was 0.128% (inactive).

For `S=C(NCc1ccco1)Nc1cccc(Cl)c1Cl`, the % fluorescent cells increase was 0.083% (inactive).

As for `COc1ccc2c3c([nH]c2c1)[C@H](CO)N(C(=O)c1cccnc1)CC31CCN(Cc2ccccc2)CC1`, the % fluorescent cells increase is 0.458% (inactive).

As to `CCc1ccc(NS(=O)(=O)c2cccc3nonc23)cc1`, the % fluorescent cells increase was 5.79% (inactive).

As to `CO[C@@H]1CN(C)C(=O)c2cc(NS(C)(=O)=O)ccc2OC[C@H](C)N(C(=O)C2CCCC2)C[C@H]1C`, the % fluorescent cells increase was 0.308% (inactive).

For `COc1ccc(-n2c(=O)n(Cc3ccccc3)c(=O)c3[nH]cnc32)cc1`, the % fluorescent cells increase was 0.008% (inactive).

Take `CC(C)(C)[S@@](=O)N1Cc2cc(C(=O)N3CCCCC3)nc(-c3cccc(-c4cccc(C#N)c4)c3)c2[C@H]1CCO`: the % fluorescent cells increase is 0.101% (inactive).

As to `COc1ccc(NC(=O)COc2ccc(C)c(C)c2)cc1S(=O)(=O)N1CCCCC1`, the % fluorescent cells increase was 0.026% (inactive).

As for `Cc1cccc2sc(N(CCCN(C)C)C(=O)CN3C(=O)c4ccccc4C3=O)nc12`, the % fluorescent cells increase was 0% (inactive).

In the case of `COc1cc(/C=C(\C#N)c2nc3ccccc3o2)ccc1O`, the % fluorescent cells increase was 2.54% (inactive).

On to `COc1ccc(C)c(-n2c(=O)n(Cc3ccccc3)c(=O)c3[nH]cnc32)c1`, for which the % fluorescent cells increase is 0.074% (inactive).

As for `COc1cc(/C=C/c2ccc3cccc(O)c3n2)cc(OC)c1OC`, the % fluorescent cells increase was 0% (inactive).

Regarding `CCOCCCn1c(=NC(C)=O)c(C#N)cc2c(=O)n3cccc(C)c3nc21`, the % fluorescent cells increase is 0.498% (inactive).

`CCc1ccc(NS(=O)(=O)c2ccc3[nH]cc(C(=O)N4CCc5ccccc54)c(=O)c3c2)cc1`: the % fluorescent cells increase was 0% (inactive).

As to `Cc1ccc(S(=O)(=O)Nc2ccc3c(c2)C(=O)N([C@H](C)CO)C[C@@H](C)[C@@H](CN(C)Cc2ccc(Cl)c(Cl)c2)OCCCC[C@H](C)O3)cc1`, the % fluorescent cells increase was 8.98% (inactive).

For `CN(C)C(=O)C[C@@H]1C=C[C@H](NS(=O)(=O)c2ccccc2)[C@@H](CO)O1`, the % fluorescent cells increase is 0% (inactive).

Regarding `COc1ccccc1NC(=S)N(CCCN1CCOCC1)Cc1cccs1`, the % fluorescent cells increase is -0.007% (inactive).

As for `CN(C)/C=C1\C=C2C(=O)c3ccccc3N2C1=O`, the % fluorescent cells increase was 0.092% (inactive).

For the compound `CC(C)OC(=O)/C(=C\c1cccnc1)NC(=O)c1ccccc1`, the % fluorescent cells increase is 0.013% (inactive).
